From patent US7396910B2, “Transient receptor potential channel TRPV3 and its use” (IRM LLC, priority 2001, dated 2008)
Entries after “also recorded” stand apart in the source; their conditions may differ. Values belong to the compound of their own block, whether it stands above or below them.

What was measured:
Mouse TRPV3 = target: T1, Mouse TRPV3 (Mus musculus, UniProt Q8K424, A9V); experiment: Whole-cell voltage clamp of TRPV3-expressing CHO cells (heat-evoked currents); type: cell-based
T1 construct: expressed in transfected cells
T1 sequence (Q8K424 1-791 A9V): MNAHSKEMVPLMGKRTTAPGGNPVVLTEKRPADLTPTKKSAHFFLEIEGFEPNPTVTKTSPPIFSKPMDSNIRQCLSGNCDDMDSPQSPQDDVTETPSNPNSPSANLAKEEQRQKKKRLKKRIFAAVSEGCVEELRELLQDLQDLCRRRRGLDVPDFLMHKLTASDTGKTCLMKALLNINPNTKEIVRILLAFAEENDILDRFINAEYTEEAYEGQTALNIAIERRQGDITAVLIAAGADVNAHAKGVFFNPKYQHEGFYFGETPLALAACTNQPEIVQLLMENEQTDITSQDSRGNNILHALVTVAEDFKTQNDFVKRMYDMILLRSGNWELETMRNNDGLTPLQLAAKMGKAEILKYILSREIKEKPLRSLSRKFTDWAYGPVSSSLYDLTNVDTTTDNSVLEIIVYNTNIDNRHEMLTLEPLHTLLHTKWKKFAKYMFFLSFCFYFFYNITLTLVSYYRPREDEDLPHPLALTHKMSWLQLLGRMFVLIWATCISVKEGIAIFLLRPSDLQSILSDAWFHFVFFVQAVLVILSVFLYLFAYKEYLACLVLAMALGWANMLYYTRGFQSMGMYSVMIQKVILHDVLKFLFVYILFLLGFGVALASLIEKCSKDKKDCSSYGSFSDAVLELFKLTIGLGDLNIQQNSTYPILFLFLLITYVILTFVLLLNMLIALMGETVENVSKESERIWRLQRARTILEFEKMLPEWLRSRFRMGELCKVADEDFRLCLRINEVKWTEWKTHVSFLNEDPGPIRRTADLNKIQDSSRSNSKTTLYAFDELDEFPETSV
Description: Given the high degree of homology of TRPV3 to TRPV family members, TRPV3 is tested to determine whether it responds to stimuli known to activate other closely-related family members. Accordingly, the effects of heat upon TRPV3 activity in mediating conductance are examined using whole-cell patch-clamp analysis of transfected CHO cell lines expressing TRPV3.
Mouse TRPV3 and rat TRPV1 cDNA are subcloned into pcDNA5 (Invitrogen) and transfected into CHO-K1/FRT cells using Fugene 6 (Roche). The transfected cells are selected by growth in MEM medium containing 200 μg/mL hygromycin (Gibco BRL). Populations are frozen at early passages and these stocks are used for further studies. Stable clones that express the mRNAs are identified by Northern blot analysis as well as Southern blotting to confirm integration site. Long-term cultures are subsequently maintained at 33° C.
TRPV3 expressing CHO cells are assayed electrophysiologically using whole cell voltage clamped techniques. Currents are recorded via pCLAMP8 suite of software via an Axopatch 200A and filtered at 5 kHz. Series-resistance compensation for all experiments is 80% using 2-5 MΩ resistance, fire-polished pipettes. Unless stated, the holding potential for most experiments is −60 mV, apart from the current-voltage relationship studies (2 second ramp from −100 to +80 mV). Cells are normally bathed in a medium containing (mM): NaCl, 140; KCl, 5; Glucose; 10, HEPES, 10; CaCl2, 2; MgCl2 1; titrated to pH 7.4 with NaOH, apart from the monovalent permeability studies, when NaCl is replaced by equimolar KCl or CsCl with the omission of KCl, 5 mM. For the divalent permeability studies, the solutions either contain 1 mM Ca^2+ or Mg^2+ and (mM) NaCl, 100; Glucose, 10; Hepes, 10; sucrose, 80 or 30 mM test ion, in the above solution minus sucrose. The experiments in calcium free media have no added CaCl2 with the addition of 100 μM EGTA. Pipette solution is always (mM) CsCl, 140; CaCl2, 1; EGTA, 10; HEPES, 10; MgATP, 2; titrated to pH7.4 with CsOH. For the permeability, ratios for the monovalent cations relative to Na (PX/PNa) are calculated as follows: PX/PNa=Eshift={RT/F}log(PX/PNa[X]O/[Na]O)

mouse TRPM8 [1] = target: T2, mouse TRPM8 (Mus musculus, UniProt Q8R4D5); experiment: Fura-2 calcium imaging of TRPM8-expressing CHO cells; type: cell-based
T2 construct: expressed in transfected cells
Description: Given the similarity of TRPM8 protein to TRPV family members and its unique expression pattern, the effects of heat, capsaicin, cold and menthol in mediating calcium influx are examined using transfected CHO-K1/FRT cells expressing TRPM8 protein and a fluorescent calcium imaging method as described in detail below.
To generate mouse TRPM8-expressing CHO cell lines, mouse TRPM8 cDNA are subcloned in pcDNA5 (Invitrogen), transfected into CHO-K1/FRT cells using Fugene 6 (Roche). The transfected cells are selected by growth in MEM medium containing […] hygromycin (Gibco BRL). Populations are frozen at early passage numbers and these stocks are used for further studies. Stable clones that express the mRNAs are identified by Northern blot analysis as well as Southern blotting to confirm integration site (not shown).
Calcium imaging experiments are performed essentially as previously described (see Savidge et al., Neuroscience, 102:177-184 (2001)). Briefly, cells are plated on glass coverslips and loaded with Fura-2 acetoxymethyl ester ([…]) and incubated for 30-60 minutes at room temperature in […] of pluronic acid (Molecular Probes, Eugene, Oreg.) in a HEPES-buffered saline (2 mM Ca 2+). Coverslips are placed in a laminar flow perfusion chamber (Warner Instrument Corp.) and constantly perfused with HEPES-buffered saline (2 mM Ca^2+) via a local perfusion pipette through which buffer and chilled solutions are also applied. Chilled stimulations consist of a linear decrease (˜1-1.5° C. sec^−1) in perfusate temperature from 33° C. to 10° C. Perfusate temperature is controlled by a regulated Peltier device and is monitored in the cell chamber by a miniature thermocouple. Alternatively, cells are plated on 24-well tissue culture plates, loaded with Fura-2 and application of solutions is performed with a 3 cc syringe over a period of 10 seconds. Images of Fura-2 loaded cells with the excitation wavelength alternating between […] are captured with a cooled CCD camera. Following subtraction of background fluorescence, the ratio of fluorescence intensity at the two wavelengths is calculated. Ratio levels in groups of 20-40 individual cells are analyzed using MetaFluor (Universal Imaging Corporation). All graphs are averaged responses from groups of 20-30 individual cells from representative single experiments. […] Hanks balanced salt solution (HBSS), phosphate buffered saline (PBS) and all cell culture reagents are obtained from Gibco BRL. Ruthenium red, capsaicin and menthol are obtained from Sigma.

[2] = tested on: Non-transfected CHO cells; experiment: Whole-cell voltage clamp of non-transfected CHO cells (control cells); type: cell-based, Chinese Hamster; settings: temperatures >23° C.
Description: To investigate the membrane responses to cold and menthol, voltage clamp experiments are carried out on TRPM8 expressing cells which are prepared as described above. Cells are plated onto poly-D-lysine coated cover-slips for recording purposes and recordings undertaken 18-24 hours later. […] Series resistant compensation is 80% for all experiments, using 2-5 MΩ fire-polished pipettes. Recording solutions are as follows; pipette solution for all experiments is (mM) CsCl, 140; […] EGTA, 10; HEPES, 10; […] For menthol and cold activated currents the bath solution is (mM): NaCl, 140; KCl, 5; Glucose; 10, HEPES, 10; […] Current-voltage relationships are used to evaluate reversal potentials with voltage ramps from -100 to +60 mV (2 second duration). For the permeability studies for the monovalent ions the NaCl in a simplified bath solution (mM): NaCl, 140; Glucose; 10, HEPES, 10; […] MgCl2, 1, is substituted by either equimolar CsCl or KCl (titrated with CsOH or KOH). For calcium permeability estimates, the bath solutions contains (mM) NaCl, 100; Glucose, 10 mM; Hepes, 10 mM (titrated with NaOH) plus 1 or 30 mM CaCl2. Osmolarity of solutions are adjusted by addition of sucrose. Permeability ratios for the monovalent cations to Na (PX/PNa) are calculated as follows: […]={[…])

mouse TRPM8 [3] = target: T2, mouse TRPM8; experiment: Whole-cell voltage clamp of TRPM8-expressing CHO cells; type: cell-based
Description: To investigate the membrane responses to cold and menthol, voltage clamp experiments are carried out on TRPM8 expressing cells which are prepared as described above.
Cells are plated onto poly-D-lysine coated cover-slips for recording purposes and recordings undertaken 18-24 hours later. Experiments are carried out at room temperature using whole-cell voltage clamp technique, with an Axopatch 2B amplifier, filtered at 5 kHz and pClamp suite of software (Axon Instruments). Series resistant compensation is 80% for all experiments, using 2-5 MΩ fire-polished pipettes. Recording solutions are as follows; pipette solution for all experiments is (mM) CsCl, 140; CaCl2, 1; EGTA, 10; HEPES, 10; MgATP, 2; titrated to pH 7.4 with CsOH. For menthol and cold activated currents the bath solution is (mM): NaCl, 140; KCl, 5; Glucose; 10, HEPES, 10; CaCl2, 2; MgCl2, 1; titrated to pH 7.4 with NaOH. Current-voltage relationships are used to evaluate reversal potentials with voltage ramps from −100 to +60 mV (2 second duration). For the permeability studies for the monovalent ions the NaCl in a simplified bath solution (mM): NaCl, 140; Glucose; 10, HEPES, 10; CaCl2, 2; MgCl2, 1, is substituted by either equimolar CsCl or KCl (titrated with CsOH or KOH). For calcium permeability estimates, the bath solutions contains (mM) NaCl, 100; Glucose, 10 mM; Hepes, 10 mM (titrated with NaOH) plus 1 or 30 mM CaCl2. Osmolarity of solutions are adjusted by addition of sucrose. Permeability ratios for the monovalent cations to Na (PX/PNa) are calculated as follows: PX/PNa=Eshift={RT/F}log(PX/PNa[X]O/[Na]O)
where B′=P′Ca/PNa and P′Ca=PCa/(1+e^EF/RT) and [Ca]O(1) and [Ca]O(2) refer to the two different calcium concentrations. Local perfusion of menthol is via a TC^2bip temperature controller. A Marlow temperature controller is used for the cooling ramps.

[4] = tested on: Non-transfected CHO cells; experiment: Fura-2 calcium imaging of non-transfected CHO cells (control cells); type: cell-based, Chinese Hamster; settings: tested up to 1 mM

T2 sequence (Q8R4D5 whole entry): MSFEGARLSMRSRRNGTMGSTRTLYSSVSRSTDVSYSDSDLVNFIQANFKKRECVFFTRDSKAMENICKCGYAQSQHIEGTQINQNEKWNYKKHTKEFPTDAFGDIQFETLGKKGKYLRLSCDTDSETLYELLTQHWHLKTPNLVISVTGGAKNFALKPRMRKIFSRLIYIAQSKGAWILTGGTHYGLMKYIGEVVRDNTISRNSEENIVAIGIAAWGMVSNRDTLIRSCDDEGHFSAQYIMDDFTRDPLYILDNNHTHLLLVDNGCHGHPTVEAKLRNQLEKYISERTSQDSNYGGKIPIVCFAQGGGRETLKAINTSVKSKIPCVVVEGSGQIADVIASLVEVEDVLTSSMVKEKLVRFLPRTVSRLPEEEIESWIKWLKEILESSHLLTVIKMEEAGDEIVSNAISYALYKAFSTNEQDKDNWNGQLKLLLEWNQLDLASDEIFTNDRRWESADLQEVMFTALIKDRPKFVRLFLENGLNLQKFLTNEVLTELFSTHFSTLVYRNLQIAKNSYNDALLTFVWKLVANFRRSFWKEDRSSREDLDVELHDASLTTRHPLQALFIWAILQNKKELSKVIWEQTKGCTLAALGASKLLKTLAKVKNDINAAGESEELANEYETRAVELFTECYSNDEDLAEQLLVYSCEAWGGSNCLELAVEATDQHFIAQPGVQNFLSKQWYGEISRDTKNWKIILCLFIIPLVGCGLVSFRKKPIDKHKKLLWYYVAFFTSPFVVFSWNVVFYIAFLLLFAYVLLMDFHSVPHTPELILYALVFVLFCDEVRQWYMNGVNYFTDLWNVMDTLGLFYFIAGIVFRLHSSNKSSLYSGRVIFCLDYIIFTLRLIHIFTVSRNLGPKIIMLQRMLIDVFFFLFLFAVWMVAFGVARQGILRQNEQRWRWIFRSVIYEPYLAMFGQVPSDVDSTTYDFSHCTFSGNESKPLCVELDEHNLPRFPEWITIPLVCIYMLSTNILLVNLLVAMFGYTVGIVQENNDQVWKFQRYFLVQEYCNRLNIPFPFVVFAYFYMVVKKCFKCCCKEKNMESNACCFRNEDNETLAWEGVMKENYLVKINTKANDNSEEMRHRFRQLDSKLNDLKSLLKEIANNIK

current response evoked in TRPV3-expressing cells (Mouse TRPV3; 1 μM, whole cell voltage clamp): does not evoke a response
intracellular calcium response evoked in TRPM8 expressing cells (mouse TRPM8 [1]; 10 μM): does not evoke a response
Compound: COc1cc(CNC(=O)CCCC/C=C/C(C)C)ccc1O [Capsaicin, capsaicin]

Compound: Oc1cc2c(cc1O)CN(C(=S)NCCc1ccc(Cl)cc1)CCC2 [capsazepine]
amplitude of test heat-evoked current relative to the preceding response (Mouse TRPV3; 10 μM applied for 2 minutes prior to the test heat challenge, after 4-5 sensitizing heat steps, no-antagonist control 1.57±0.25): 2.31±0.36 times the amplitude of the preceding response

Compound: CC1CCC(C(C)C)C(O)C1 (stereo not shown) [menthol]
currents evoked in non-transfected CHO cells [2]: not in non-transfected CHO cells
inward currents evoked in TRPM8-expressing CHO cells (FIG. 10A) (mouse TRPM8 [3]; 1 mM, Vh=−60 mV, 25° C.): Inward currents evoked
concentration-response relationship of evoked currents at 22° C. versus 35° C. (mouse TRPM8 [3]; +60 mV, 0.1, 0.5, 1 and 10 mM): shifted to the left at the lower temperature
Erev of the menthol activated current (mouse TRPM8 [3]; CsCl pipette, NaCl-based bath solution, n=12): −9.28±0.75 mV
currents evoked in TRPM8 expressing cells (mouse TRPM8 [3]; temperatures above the threshold for cold activation (>23° C.)): evokes rapidly activating currents
calcium response of non-transfected CHO cells [4]: completely insensitive; also recorded: no increase in [Ca^2+]i
calcium response of TRPM8 expressing cells upon lowering the temperature to 30° C. (mouse TRPM8 [1]; 30° C., 10 μM (FIG. 7E)): intracellular calcium levels increases; also recorded: marked increase in intracellular Ca^2+
calcium response of TRPM8 expressing cells at 33° C. (mouse TRPM8 [1]; 33° C., 10 μM (FIG. 7E)): does not induce a calcium response; also recorded: does not elicit an influx of Ca^2+
intracellular calcium (Fura-2 fluorescence) response of TRPM8 cells (mouse TRPM8 [1]; cells incubated at 25° C., 10 and 100 μM): increases significantly; also recorded: responds to menthol
desensitization of TRPM8-expressing cells on repeated applications (mouse TRPM8 [1]; repeated applications (FIG. 7E)): do not appear to desensitize

Compound: N.N.N.N.N.N.N.N.N.N.N.N.N.N.[Cl-].[Cl-].[Cl-].[Cl-].[Cl-].[Cl-].[O-2].[O-2].[Ru+3].[Ru+3].[Ru+4] [ruthenium red]
relative amplitude of the heat response (test heat-evoked current relative to the preceding response) (Mouse TRPV3; 1 μM applied for 2 minutes prior to the test heat challenge, after 4-5 sensitizing heat steps, no-antagonist control 1.57±0.25): 0.34±0.03
effect on sensitization and heat response of TRPV3 (FIG. 4D) (Mouse TRPV3; 1 μM, repeated heat steps): attenuates the sensitization and inhibits the heat response
suppression of the temperature (cold) calcium response of TRPM8 expressing cells (mouse TRPM8 [1]; 5 μM): does not suppress the temperature response
